Laboratory results as given in patent US20100152249A1, “COMPOSITONS AND METHOD FOR TREATMENT OF MOOD AND COGNITIVE IMPAIRMENTS” (BOARD OF TRUSTEES OF THE LELAND STANFORD JUNIOR UNIVERSITY, priority 2008, published 2010).

Test system: patients with depressive disorder
Assay: Open-label rosiglitazone added to treatment as usual for 12 weeks in patients with depressive disorder and surrogate IR blood markers
Format: in vivo, human
Method: Open-label PPAR agonist, rosiglitazone, titrated to a dose of 8 mg/day, was administered for 12 weeks to patients with depressive disorder receiving treatment as usual (TAU). Subjects were evaluated and surrogate IR blood markers were chosen based on fasting plasma glucose >100 mg/dL or triglyceride (TG) to high density lipoprotein (HDL) ratio of about 3.0 or greater.
Psychiatric Response to Treatment. […] Cohen's d for pre- to post-treatment HDRS-21 was 1.17, with an effect size of r=0.504. For CGI-S scores, Cohen's d and effect size r for CGI-S were 1.27 and 0.54, respectively. […] Even considering the very small sample size, the trajectory of decline in HDRS and CGI was linear.

[1] = 8 mg/day, 12 weeks, 8 completers

CN(CCOc1ccc(CC2SC(=O)NC2=O)cc1)c1ccccn1 (stereo not drawn) [rosiglitazone, 5-[4-[2-(N-methyl-N-(2-pyridyl)amino)ethoxy]benzyl]thiazolidine-2,4-dione] was tested. Which CGI-S post-treatment mean (8 mg/day, 12 weeks, add-on to TAU, 8 completers, baseline mean 4.0, p=0.043) did it give?
The CGI-S post-treatment mean was 2.9.

And the HDRS-21 post-treatment mean (8 mg/day, 12 weeks, add-on to TAU, 8 completers, baseline mean 19.9, repeated measures ANOVA p=0.019)?
Its HDRS-21 post-treatment mean is 12.1.

And the “Cohen's d for CGI-S” value [1]?
Its value is 1.27.

What about the “Cohen's d for pre- to post-treatment HDRS-21” value [1] of the same compound?
The value was 1.17.

What about the “effect size r for CGI-S” value [1] of the same compound?
Its value is 0.54.

And the “effect size r for pre- to post-treatment HDRS-21” value [1]?
Its value is 0.504.

What about the “patients showing ≧50% HDRS-21 score reduction” value [1] of the same compound?
The value was 4 of the 8.

What about the “mean reduction in HDRS-21 scores” value (8 mg/day, 12 weeks, 8 completers, versus baseline) of the same compound?
The value was 39.3%.

What about the “depression severity by Hamilton Depression Rating Scale and clinical assessment (CGI) scores” value (8 patients who completed the 12 week study, moderate effect sizes) of the same compound?
Its value is “significant declines”.
